Results from patent publication US6114326A, “Use of cabergoline in the treatment of restless legs syndrome” (priority 1999, dated 2000).
“Also recorded” adds a separate entry of the source.

What was measured:
[1] = test system: D2 and D3 molecular receptors; conditions: cited from earlier work
[2] = test system: restless legs syndrome patients; assay: Safety / adverse events, tolerability, augmentation in 12-week open label trial; assay type: in vivo; conditions: 6 months or more after treatment, compared with L-Dopa
[3] = test system: D1 family of receptors; conditions: cited from earlier work
[4] = test system: D2 family of receptors; conditions: cited from earlier work
[5] = test system: restless legs syndrome patients; assay: Safety / adverse events, tolerability, augmentation in 12-week open label trial; assay type: in vivo
From the text: Apart from levodopa, patients had to stop taking any medication known to have positive or negative effect on RLS two weeks before baseline (i.e., other dopamine agonists, benzodiazepines, opioids or other psychotropic agents). Patients who were on levodopa therapy were allowed to either stop levodopa prior to study entry or to continue, taper or discontinue levodopa during the study. To prevent well known peripheral dopaminergic side-effects such as nausea, vomiting, vertigo and arterial hypotension domperidone (not available in the United States) was comedicated initially and also tapered if possible. […] Neurological case history, examination, electrocardiogramm, chest x-ray and polysomnography were performed to ensure that selection criteria were fulfilled. A two-night PSG (including one night of adaptation) was performed to evaluate the diagnosis and inclusion/exclusion criteria regardless if patients were on or off levodopa. After a 12-week treatment period patients were studied again for one night in the sleep laboratory. Subjective ratings were obtained at baseline, week 4, week 8 and at the endpoint after 12 weeks. In addition patients were monitored by phone calls to note any adverse events and to determine whether to increase the dosage of the study drug, to decrease levodopa and to decrease domperidone. The time schedule of phone calls was variable and the frequency mostly dependent on the presence of simultaneous levodopa therapy. Dosing. […] Medication was taken 2 hours prior to bedtime. Initial therapy consisted of one 0.5 mg tablet. […] The increased dose could be decreased again if necessary. […] Subjects who were pretreated with levodopa were asked to decrease levodopa simultaneously if possible. Physician's rating. The physician rated the severity of illness at baseline (normal to extremely ill), the global improvement (general condition very much worse to very much better) and the side effects by use of the Clinical Global Impressions (CGI). Safety. Safety of Cabergoline was assessed to the type and frequency of adverse event, clinically significant changes in laboratory data or ECG and premature discontinuation of study participation. Adverse events were classified as serious versus nonserious and characterized by intensity, relationship to drug treatment, frequency, course and therapeutic intervention.

[6] = test system: restless legs syndrome patients; assay: Patients' subjective ratings (PGI, RLS severity, sleep satisfaction, sleep diary, quality of life) in 12-week open label trial; assay type: in vivo
Procedure: Efficacy was assessed by polysomnography and subjective ratings.
(§1) Following a 2-week baseline period, all patients were treated with cabergoline in an open trial for 12 weeks. Apart from levodopa, patients had to stop taking any medication known to have positive or negative effect on RLS two weeks before baseline (i.e., other dopamine agonists, benzodiazepines, opioids or other psychotropic agents). Patients who were on levodopa therapy were allowed to either stop levodopa prior to study entry or to continue, taper or discontinue levodopa during the study. To prevent well known peripheral dopaminergic side-effects such as nausea, vomiting, vertigo and arterial hypotension domperidone (not available in the United States) was comedicated initially and also tapered if possible. […] Neurological case history, examination, electrocardiogramm, chest x-ray and polysomnography were performed to ensure that selection criteria were fulfilled. A two-night PSG (including one night of adaptation) was performed to evaluate the diagnosis and inclusion/exclusion criteria regardless if patients were on or off levodopa. After a 12-week treatment period patients were studied again for one night in the sleep laboratory. Subjective ratings were obtained at baseline, week 4, week 8 and at the endpoint after 12 weeks. In addition patients were monitored by phone calls to note any adverse events and to determine whether to increase the dosage of the study drug, to decrease levodopa and to decrease domperidone. The time schedule of phone calls was variable and the frequency mostly dependent on the presence of simultaneous levodopa therapy.
Dosing. Study medication was available in tablets containing 0.5 mg, 1 mg or 2 mg Cabergoline (Cabaseril®, Pharmacia & Upjohn, Erlangen, Germany). Medication was taken 2 hours prior to bedtime. Initial therapy consisted of one 0.5 mg tablet. […] The increased dose could be decreased again if necessary. All patients were initially comedicated with domperidone 20 mg t.i.d. which could be tapered and stopped if possible. Subjects who were pretreated with levodopa were asked to decrease levodopa simultaneously if possible.
Subjective ratings. After each night of recording and at each visit at week 2 and 4, patients rated the severity of illness (normal to extremely ill), the therapeutic effects by rating their global improvements by use of the Patients Global Impressions (general condition very much worse to very much better), the severity of RLS symptoms during the time of falling asleep, during the night and during the day (scale: 0=not present to 10=very strong) and sleep satisfaction (very unsatisfied to very satisfied). In addition patients rated their quality of life, concerning well being and complaints during the previous week, using modified 50-mm Hamburger Visual Analogue Scale. Patients also filled in a sleep diary at each study visit rating the following symptoms: global assessment of sleep (very bad to very good night), sleep latency, sleep time, frequency of awakenings and urge to move the legs at time falling asleep, during the night and during the day (scale: 0=not present to 10=very strong).
(§2) Statistical analysis. Statistical evaluation was performed as intent-to-treat analysis using descriptive statistics.

[7] = test system: restless legs syndrome patients; assay: Physician's rating (CGI) in 12-week open label trial; assay type: in vivo
Procedure: as §1
Physician's rating. The physician rated the severity of illness at baseline (normal to extremely ill), the global improvement (general condition very much worse to very much better) and the side effects by use of the Clinical Global Impressions (CGI). Safety. Safety of Cabergoline was assessed to the type and frequency of adverse event, clinically significant changes in laboratory data or ECG and premature discontinuation of study participation. Adverse events were classified as serious versus nonserious and characterized by intensity, relationship to drug treatment, frequency, course and therapeutic intervention.
as §2

[8] = of 9 patients, under cabergoline

C=CCN1C[C@H](C(=O)N(CCCN(C)C)C(=O)NCC)C[C@@H]2c3cccc4[nH]cc(c34)C[C@H]21 [Cabergoline, 1((6-allylergolin-8β-yl) -carbony.)-1-(3-(dimethylamino)propyl)-3-ethylurea]
D2 versus D3 binding (in words) [1]: greater D2 over D3 binding
tolerance to treatment (in words) [2]: low tolerance; also recorded: lack of tolerance
D1 family activity (in words) [3]: partial D1 activity; also recorded: partial DI family activity
D2 family agonist activity (in words) [4]: full D2 family agonist
peripheral or other dopaminergic side effects ([5]; 4 mg cabergoline monotherapy): did not see peripheral or other dopaminergic side effects
total adverse events probably related to study drug ([5]; 9 patients, 12 weeks): 8
augmentation under cabergoline ([5]; 12-week treatment): lower incidence; also recorded: did not observe augmentation
duration and intensity of adverse events ([5]; all adverse events): temporary and considered to be mild to moderate
reversal of levodopa-evoked augmentation of RLS symptoms ([5]; all patients): reversible
discontinuation of levodopa during study ([5]; all patients initially on levodopa): discontinued levodopa treatment
tolerability (in words) ([5]; domperidone stopped in all patients): excellent tolerability; also recorded: good tolerability
changes in laboratory data or ECG ([5]; in vivo): No significant changes
serious side effects / serious adverse events ([5]; in vivo): no serious side effects; also recorded: no serious adverse events
withdrawal / discontinuation of patients ([5]; in vivo): no patient withdrew; also recorded: no patient discontinued
patients with adverse events probably related to study drug ([5]; of 9 patients): 5 patients
diarrhea ([5]; probably related side effects): 1
dizziness ([5]; probably related side effects): 2
headache ([5]; probably related side effects): 2
vertigo ([5]; probably related side effects): 2
nausea ([5]; probably related, led to temporary dose reduction): 1 patient
subjective and objective sleep parameters (in words) ([6]; 12-week treatment, 1 to 4 mg (mean 2.1 mg)): marked improvement
relief of RLS symptoms (in words) ([6]; all patients, 12 weeks, 1 to 4 mg single evening dose): significant relief or became free of RLS symptoms; also recorded: complete or significant relief of RLS symptoms
times patients had to get up per night (sleep diary) ([6]; endpoint, baseline 2.1): 0.6 times per night
duration of efficacy in RLS therapy ([6]; human, in vivo): 24 h
markedly satisfied with sleep, number of patients ([6]; of 9 patients, endpoint): 4
moderately satisfied with sleep, number of patients ([6]; of 9 patients, endpoint): 1
moderately unsatisfied with sleep, number of patients ([6]; of 9 patients, endpoint): 2
severity of illness rated borderline (PGI), number of patients ([6]; of 9 patients, endpoint): 2
severity of illness rated moderately ill (PGI), number of patients ([6]; of 9 patients, endpoint): two
severity of illness rated normal (PGI), number of patients ([6]; of 9 patients, endpoint, at baseline extremely (2), very (4) or markedly (3) ill): 5
very satisfied with sleep, number of patients ([6]; of 9 patients, endpoint, baseline very (1), markedly (6) or moderately (2) unsatisfied): 2
general condition much better (PGI), number of patients [6, 8]: 3
general condition very much better (PGI), number of patients [6, 8]: 6
RLS severity during the time of falling asleep ([6]; scale 0=not present to 10=very strong, last week, baseline 4.9±4.3): 0.4±0.7
RLS severity during the day ([6]; scale 0=not present to 10=very strong, last week, baseline 5.1±3.4): 0.8±1.7
RLS severity during the night ([6]; scale 0=not present to 10=very strong, last week, baseline 6.7±2.7): 1.6±2.6
global quality of the previous night (sleep diary) ([6]; scale zero (very bad) to 10 (very good), endpoint, baseline 3.1): 6.9
efficacy in restless legs syndrome (in words) ([6]; single evening dose, incl. severe RLS and levodopa augmentation): effective and well tolerated; also recorded: very effective and well tolerated
quality of life (Hamburger Visual Analogue Scale), in words ([6]; vs. baseline conditions): much better
global improvement (physician's rating, in words) ([7]; in vivo): significant global improvement
general condition minimally better (physician's rating), number of patients ([7]; of 9 patients): 1
general condition much better (physician's rating), number of patients ([7]; of 9 patients): 3
general condition very much better (physician's rating), number of patients ([7]; of 9 patients): 5
